Here are results for 6 compounds from patent US20040106135A1, “Assay for PPAR ligand dependent gene modulation” (priority 2002, published 2004).

Assay [1] relates to PDK-4. The following applies: Wu et al. (1999); abrogated in PPARα-/- mice; cited from earlier work.
Assay [2] deals with T1, GAL4-hPPARα (Homo sapiens, UniProt Q07869).
T1 construct: other: HEK293 cell line with GAL4 UAS-Luciferase
T1 sequence (Q07869 200-468 limits assumed): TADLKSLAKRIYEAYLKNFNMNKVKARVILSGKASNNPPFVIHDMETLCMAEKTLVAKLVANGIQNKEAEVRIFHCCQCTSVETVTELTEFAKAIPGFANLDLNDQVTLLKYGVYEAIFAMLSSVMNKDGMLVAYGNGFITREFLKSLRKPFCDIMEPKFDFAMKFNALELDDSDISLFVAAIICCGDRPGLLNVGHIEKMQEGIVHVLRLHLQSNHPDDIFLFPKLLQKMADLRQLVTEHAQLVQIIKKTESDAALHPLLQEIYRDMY
The experiment in a line: Transactivation assay, GAL4-hPPARα chimera with luciferase reporter. Format: cell-based. The following applies: HEK293 cell line with GAL4 UAS-Luciferase reporter; read-out: EC50 (μM) in Transactivation Assay (GAL4-hPPARα), Present Disclosure. Here is the method: (§1) EC50 values were determined for PDK-4 mRNA induction by quantitative PCR under conditions used to generate the data shown in FIG. 2. EC50 values in the transactivation assays were determined by transfection of an expression plasmid encoding a GAL4-hPPARα chimera into cells co-expressing a luciferase reporter gene under the transcriptional control of GAL4 upstream activating elements.
Transcriptional activation assay: Cell based transcriptional activation assays using a GAL4-hPPARa expression plasmid and an HEK293 cell line stably integrated with a GAL4 UAS-Luciferase reporter gene was performed exactly as described previously (Mukherjee et al., (2002) J. Steroid Biochem. Mol. Biol. 1712:1-9).
For orientation: In a reporter assay the amount or activity of a reporter protein is the signal.

Assay [3] deals with PDK-4 mRNA in HK-2 cells (endogenous PPARα). Put plainly: PDK-4 mRNA induction in HK-2 cells (real-time RT-PCR). The format is cell-based, human. The conditions noted are these: 24 hours; for EC50: Homo sapiens, HK-2, PDK-4 mRNA induction by quantitative PCR, normalized to 18S rRNA, read-out: EC50 (μM) in HK-2 (PDK-4). Here is the method:
(§2) Values were normalized to 18S rRNA levels.
as §1
(§3) Cell culture: The following cell lines were obtained from American Type Culture Collection (ATCC) and cultured in the recommended medium for each cell type: HepG2, HK-2, Caki-1, LNCaP (CloneFGC), SW872, and ACHN. PPARα compounds were prepared to a 500× stock in DMSO; corresponding control cells received an equal volume of vehicle (0.2% v/v).
Real-time PCR: Fluorescence-based real-time PCR was performed essentially as described (Abbaszade et al., (1999) J. Biol. Chem. 274:23443-23450). Primers and probes designed from the hamster pyruvate dehydrogenase kinase 4 (PDK4) sequence (Genbank Accession No. AF321218), human pyruvate dehydrogenase kinase 4 (PDK-4) sequence (Genbank Accession No. NM_002612) and human adipose differentiation-related protein (ADFP) sequence (Genbank Accession No. NM_001122) were synthesized and purified by Biosearch Technologies. Probes for ADFP and PDK-4 were modified at the 5′ end with the reporter dye 6-FAM, and at the 3′ end with the quencher dye Black Hole Quencher 1 (Biosearch Technologies). Probes detecting rat 18S rRNA were modified at the 5′ end with VIC and at the 3′ end with TAMRA (Biosearch Technologies). For detection of hamster PDK4, primers 5′-[…] (SEQ ID NO:2), 5′[…] (SEQ ID NO:3), and probe 5′-[…] (SEQ ID NO:4) were used. For detection of human PDK4, primers 5′-[…] (SEQ ID NO:5), 5′-[…] (SEQ ID NO:6), and probe 5′-[…] (SEQ ID NO:7) were used. For detection of human ADFP, primers 5′-[…] (SEQ ID NO:8), 5′-[…] (SEQ ID NO:9), and probe 5′-[…] (SEQ ID NO: 10) were used. For detection of 18s rRNA, primers 5′-[…] (SEQ ID NO:11), 5′-[…] (SEQ ID NO:12), and probe 5′-[…] (SEQ ID NO:13) were used. Template cDNA was generated using the Advantage RT-PCR kit according to the manufacturer's (Clontech) instructions using random hexamers and 1 μg of DNaseI-treated total RNA. Taqman-based real-time PCR expression profiling was performed using 25 ng of each cDNA according to the manufacturer's (PE Biosystems) instructions with fluorescence being monitored in real-time with an ABI Prism 7700 (PE Biosystems). Relative expression levels were determined essentially as described (Gibson et al., (1996) Genome Res. 6:995-1001) using standard curves for each transcript. Relative abundance was then determined from these standard curves, subtracting mRNA levels obtained from negative control reactions performed in the absence of reverse transcriptase, and normalized to 18S rRNA levels. All expression measurements were performed in duplicate in two independent assays, generating a total of four measurements per cDNA.

Assay [4] has as its system hamster PDK-4 mRNA in kidney. Put plainly: PDK-4 mRNA induction in kidney of fat-fed hamsters. Format: in vivo. The conditions noted are these: single dose (GW9578 3 mg/kg, fenofibrate 100 mg/kg, gemfibrozil 500 mg/kg), 16 hours. Here is the method: FIG. 4B is a bar graphs depicting the induction of PDK-4 mRNA in hamster kidney by PPARα ligands. […] After 16 hours, the tissues were harvested, total RNA isolated and levels of hamster PDK-4 mRNA were detected by RT-PCR. The values are normalized to 18S rRNA levels. The mean and SEM of three individual animals are shown.
(§4) PDK-4 plays a critical role in regulating glucose metabolism by phosphorylating and inactivating the pyruvate dehydrogenase complex in response to increased fatty acid oxidation. […] To investigate the response of PDK-4 to fibrate treatment in vivo, in another aspect of the present invention the fat-fed hamster model was employed, which closely mimics the serum lipid profiles of humans than other rodent models (Sullivan et al., (1993) Lab. Anim. Sci. 43:575-578). […] These doses were previously shown to yield maximal effects on blood triglycerides in hamster. […] In hamster kidney, the basal levels of PDK-4 mRNA were approximately 10-fold higher than in the liver (FIG. 4B). […] Fibrates are effective treatments for lowering serum triglyceride levels. To verify that the doses used in this study were efficacious, blood triglyceride levels were monitored over a 48 hour time course.
(§5) Real-time PCR: Fluorescence-based real-time PCR was performed essentially as described (Abbaszade et al., (1999) J. Biol. Chem. 274:23443-23450). […] Taqman-based real-time PCR expression profiling was performed using 25 ng of each cDNA according to the manufacturer's (PE Biosystems) instructions with fluorescence being monitored in real-time with an ABI Prism 7700 (PE Biosystems). Relative expression levels were determined essentially as described (Gibson et al., (1996) Genome Res. 6:995-1001) using standard curves for each transcript. Relative abundance was then determined from these standard curves, subtracting mRNA levels obtained from negative control reactions performed in the absence of reverse transcriptase, and normalized to 18S rRNA levels. […]

Assay [5] is described as follows: Serum triglyceride levels in fat-fed hamsters. Format: in vivo, hamster. The conditions noted are these: for Serum triglyceride levels, 48 h / Serum triglyceride levels, 8 h / Serum triglyceride levels, 16 h: single dose, mean +/- SEM, 3 animals; for Serum triglyceride levels, 48 h: control 208.67; for Serum triglyceride levels, 8 h: control 261.33; for Serum triglyceride levels, 16 h: control 308.00. As to the method: Blood was sampled at 8, 16 and 48 hours following a single drug treatment for total triglyceride analysis. The mean levels (+/−SEM) for 3 animals per group are shown. The “*” indicates a statistically significant difference with respect to control (p<0.01) by Student's t-test. Animal studies: All procedures performed in this study were approved by the Animal Care and Use committee, and conform to the guide for the Care and Use of Laboratory Animals Act. Male Syrian Golden hamsters (Charles River, Wilmington Mass.) weighing 120-140 g, were used in the study. Animals were kept on a 12-hour light/dark cycle and allowed free access to normal chow and water. The animals were divided into groups according to weight, and fed either an high fat diet (0.5% cholesterol, 5% coconut oil) (N=3) or normal chow diet (N=3). […] At intervals of 0, 8, 16 and 48 hr animals were anesthetized with CO2. Blood was collected by cardiac puncture into EDTA containing tubes; plasma was isolated for immediate analysis of triglycerides by the Dade Clinical Analyser®. Animals were then euthanized with CO2. The liver and kidneys were collected, flash frozen in liquid nitrogen and stored at −80° C. for future gene expression analysis.

For assay [6], the system named is hamster PDK-4 mRNA in liver. The experiment in a line: PDK-4 mRNA induction in liver of fat-fed hamsters. The format is in vivo. The following applies: single dose (GW9578 3 mg/kg, fenofibrate 100 mg/kg, gemfibrozil 500 mg/kg), 16 hour post-treatment. Here is the method:
FIG. 4A is a bar graph depicting the induction of PDK-4 mRNA in hamster liver by PPARα ligands. […] After 16 hours, the tissues were harvested, total RNA isolated and levels of hamster PDK-4 mRNA were detected by RT-PCR. The values are normalized to 18S rRNA levels. The mean and SEM of three individual animals are shown.
as §4, §5

In assay [7] the test system is hamster PPARα. The experiment in a line: Hamster PPARα transactivation assay. The format is cell-based.
For assay [8], the system named is ADRP mRNA in HK-2 cells (endogenous PPARα). The experiment in a line: ADRP mRNA induction in HK-2 cells (real-time RT-PCR). The following applies: highest dose tested 300 μM. Format: cell-based, human. As to the method:
as §2, §3, §5

Assay [9] has as its system PDK4 mRNA in HEK293 cells. Put plainly: PDK4 mRNA induction in HEK293 cells by PPAR modulators (Taqman PCR). The format is cell-based, human. The following applies: 4 hours; 100 micromolar fenofibric acid, 10 micromolar rosiglitazone, 10 micromolar GW501516; relative to CYCD1 mRNA. As to the method: HEK293 cells were treated for 4 hours with the following PPAR modulators:
100 micromolar fenofibric acid (a PPARα selective modulator), 10 micromolar rosiglitazone (a PPARγ selective modulator) and 10 micromolar GW501516 (a PPARβ(δ) selective modulator; Oliver et al., (2001) Proc. Natl. Acad. Sci. U.S.A. 98:5306-11). PDK4 mRNA was measured by Taqman PCR analysis. The PDK4 expression levels are expressed relative to CYCD1 mRNA used as a normalization control.
Background: Real-time PCR tracks product formation cycle by cycle.

Assay [10] deals with PDK-4. The following applies: Way et al. (2001); cited from earlier work.

`Cc1cccc(Nc2cc(Cl)nc(SCC(=O)O)n2)c1C` [WY-14, 643]: the “PDK-4 induction in rodent tissues in vivo” value in assay [1] is “PDK-4 induction was observed”.
`CC(C)(Oc1ccc(C(=O)c2ccc(Cl)cc2)cc1)C(=O)O` [Fenofibric Acid, fenofibric acid]: the EC50 in assay [2] is 80 µM; in [3] it was 10 µM.
`Cc1ccc(C)c(OCCCC(C)(C)C(=O)O)c1` [Gemfibrozil]: the “Induction of PDK-4 mRNA in kidney” value in assay [4] is “no effect”. Moreover, the “Change of triglyceride levels compared with the control group” value in assay [5] (single dose, 8, 16 and 48 hours) is listed as “neither gemfibrozil nor fenofibrate altered triglyceride levels to a statistically significant degree”. Further, in [5], the “Serum triglyceride levels, 48 h” value is 206.33 + 65.30; the “Serum triglyceride levels, 8 h” value is given as 334.33 + 82.42; the “Serum triglyceride levels, 16 h” value is recorded as 325.67 + 46.77. Further, the “Induction of PDK-4 mRNA levels in the liver” value in assay [6] is “least effect”. Further, the “Activity in hamster PPARα transactivation assay” value in assay [7] is given as “lowest activity”. In assay [2], the EC50 amounted to 60 µM. For the same compound, the “Saturation of ADRP induction” value in assay [8] is given as “did not appear to saturate”. Moreover, the “Efficacy of PDK-4 induction compared with GW9578” value in [3] (HK-2 cells, maximal induction by GW9578 = 100%) is on record as “lower efficacy than GW9578”. Besides, the EC50 in assay [3] turned out to be 27 µM.
`CC(C)OC(=O)C(C)(C)Oc1ccc(C(=O)c2ccc(Cl)cc2)cc1` [Fenofibrate, fenofibrate]: the “Induction of PDK-4 mRNA in kidney” value in assay [4] was found to be 11 fold. In [5], the “Serum triglyceride levels, 48 h” value was 146.33 + 17.15; the “Serum triglyceride levels, 8 h” value is given as 229.00 + 38.52; the “Serum triglyceride levels, 16 h” value is reported as 231.67 + 63.22. For the same compound, the “Induction of PDK-4 mRNA levels in the liver” value in assay [6] is reported as 14 fold.
Regarding `Cc1cc(SCc2sc(-c3ccc(C(F)(F)F)cc3)nc2C)ccc1OCC(=O)O` [GW501516], in assay [9], the “PDK4 mRNA induction in HEK293 cells” value is “induced”.
`CN(CCOc1ccc(C[C@H](Nc2ccccc2C(=O)c2ccccc2)C(=O)O)cc1)c1ccccn1` [GW1929]: the “PDK-4 levels in the skeletal muscle of rats” value in assay [10] was “decrease PDK-4 levels”.

One may read the EC50 as the concentration giving half of the maximal effect.
